Reference: patent US11207325B2, “Triazolopyrimidine compounds and uses thereof” (Novartis AG, priority 2014, dated 2021)

Test system: H3K27 methylation in G401 cell
Experiment: ELISA (H3K27 methylation) assay
Assay type: cell-based
Settings: Homo sapiens, G-401; ELISA Qualified assay (H3K27 methylation); read-out: (c) IC50 (μM), ELISA Qualified
Source text: ELISA (H3K27 Methylation) Assay

Compound	IC50 [µM]
COc1ncc(-c2cnc(NCc3cccc4c3CCO4)n3cnnc23)cn1 [Example 54, N-((2,3-dihydrobenzofuran-4-yl)methyl)-8-(2-methoxypyrimidin-5-yl)-[1,2,4]triazolo[4,3-c]pyrimidin-5-amine]	0.144
Cc1cnc(Cl)cc1-c1cnc(NCc2c(F)ccc3c2CCO3)n2cnnc12 [Example 228, 8-(2-chloro-5-methylpyridin-4-yl)-N-((5-fluoro-2,3-dihydrobenzofuran-4-yl)methyl)-[1,2,4]triazolo[4,3-c]pyrimidin-5-amine]	0.0292
Cc1nc(N)ccc1-c1cnc(NCc2c(F)ccc3c2CCO3)n2cnnc12 [Example 156, 8-(6-amino-2-methylpyridin-3-yl)-N-((5-fluoro-2,3-dihydrobenzofuran-4-yl)methyl)-[1,2,4]triazolo[4,3-c]pyrimidin-5-amine]	0.0261
O=C(c1ccc(-c2cnc(NCc3cccc4c3CCO4)n3cnnc23)cn1)N1CCOCC1 [Example 68, (5-(5-(((2,3-dihydrobenzofuran-4-yl)methyl)amino)-[1,2,4]triazolo[4,3-c]pyrimidin-8-yl)pyridin-2-yl)(morpholino)methanone]	0.378
CN(C)C(=O)c1ccc(-c2cnc(NCc3c(F)ccc4c3CCO4)n3cnnc23)cc1 [Example 55, 4-(5-(((5-fluoro-2,3-dihydrobenzofuran-4-yl)methyl)amino)-[1,2,4]triazolo[4,3-c]pyrimidin-8-yl)-N,N-dimethylbenzamide]	0.0131
Cc1cc(S(C)(=O)=O)ccc1-c1cnc(NCc2c(F)ccc3c2CCO3)n2cnnc12 [Example 128, N-((5-fluoro-2,3-dihydrobenzofuran-4-yl)methyl)-8-(2-methyl-4-(methylsulfonyl)phenyl)-[1,2,4]triazolo[4,3-c]pyrimidin-5-amine]	0.0037
Cc1nc(CN(C)C)ccc1-c1cnc(NCc2c(F)ccc3c2CCO3)n2cnnc12 [Example 223]	0.0014
Fc1ccc2c(c1CNc1ncc(-c3cnccc3Cl)c3nncn13)CCO2 [Example 124]	0.006
O=C(c1ccc(-c2cnc(NCc3c(F)ccc4c3CCO4)n3cnnc23)cn1)N1CCCC1 [Example 129, (5-(5-(((5-fluoro-2,3-dihydrobenzofuran-4-yl)methyl)amino)-[1,2,4]triazolo[4,3-c]pyrimidin-8-yl)pyridin-2-yl)(pyrrolidin-l-yl)methanone]	0.0019
Fc1ccc2c(c1CNc1ncc(-c3cnccc3C(F)(F)F)c3nncn13)CCO2 [Example 136, N-((5-fluoro-2,3-dihydrobenzofuran-4-yl)methyl)-8-(4-(trifluoromethyl)pyridin-3-yl)-[1,2,4]triazolo[4,3-c]pyrimidin-5-amine]	0.0804
CC(C)n1nccc1-c1cnc(NCc2c(F)ccc3c2CCO3)n2cnnc12 [Example 144, N-((5-fluoro-2,3-dihydrobenzofuran-4-yl)methyl)-8-(1-isopropyl-1H-pyrazol-5-yl)-[1,2,4]triazolo[4,3-c]pyrimidin-5-amine]	0.0683
O=CN1CCN(c2ccc(-c3cnc(NCc4cccc5c4CCO5)n4cnnc34)cn2)CC1 [Example 134, 4-(5-(5-(((2,3-dihydrobenzofuran-4-yl)methyl)amino)-[1,2,4]triazolo[4,3-c]pyrimidin-8-yl)pyridin-2-yl)piperazine-1-carbaldehyde]	0.165
COCCc1ccc(-c2cnc(NCc3cccc4c3CCO4)n3cnnc23)cn1 [Example 86, N-((2,3-dihydrobenzofuran-4-yl)methyl)-8-(6-(2-methoxyethyl)pyridin-3-yl)-[1,2,4]triazolo[4,3-c]pyrimidin-5-amine]	0.0758
COCc1ncc(-c2cnc(NCc3cccc4c3CCO4)n3cnnc23)cc1C [Example 83, N-((2,3-dihydrobenzofuran-4-yl)methyl)-8-(6-(methoxymethyl)-5-methylpyridin-3-yl)-[1,2,4]triazolo[4,3-c]pyrimidin-5-amine]	0.14
